Assay results as given in ChEMBL document CHEMBL3352581, “Structure-activity relationships of non-opioid [des-Arg(7)]-dynorphin A analogues for bradykinin receptors” (Bioorg Med Chem Lett, 2014).
Where a SMILES comes first, the peptide text is derived from it. [ ]: non-standard residue; d: D form. Nle = CCCC[C@H](N)C(=O)O

Columns and labels:
[1] = Displacement of [3H]DALKD from bradykinin receptor in rat brain membranes by competition assay at pH 7.4; assay type: cell membranes, Membrane
[2] = Retention time of the compound by HPLC method; assay type: physicochemical
[3] = Displacement of [3H]DALKD from bradykinin receptor in rat brain membranes by competition assay; assay type: cell membranes, Membrane
[4] = Displacement of [3H]DALKD from bradykinin receptor in rat brain membranes by competition assay at pH 6.8; assay type: cell membranes, Membrane

Row | Molecule | IC50 [1] [µM] | Retention_time [2] [min] | IC50 [3] [µM] | pIC50 [3] | pIC50 [4] | pIC50 [1] | IC50 [4] [µM]
1 | CC[C@H](C)[C@H](NC(=O)[C@H](CCCNC(=N)N)NC(=O)[C@H](CC(C)C)NC(=O)[C@@H](N)Cc1ccccc1)C(=O)N[C@@H](CCCNC(=N)N)C(=O)N1CCC[C@H]1C(=O)N[C@@H](CCCCN)C(=O)O | 0.19 |  |  |  |  |  | 
2 | CCCC[C@H](NC(=O)[C@@H](N)Cc1ccccc1)C(=O)N[C@@H](CCCNC(=N)N)C(=O)N[C@H](C(=O)N[C@@H](CCCNC(=N)N)C(=O)N1CCC[C@H]1C(=O)N[C@@H](CCCCN)C(=O)O)[C@@H](C)CC |  | 10.5 |  |  |  |  | 
3 | CCCC[C@H](NC(=O)[C@H](CCCNC(=N)N)NC(=O)[C@H](CC(C)C)NC(=O)[C@@H](N)Cc1ccccc1)C(=O)N[C@@H](CCCNC(=N)N)C(=O)N1CCC[C@H]1C(=O)N[C@@H](CCCCN)C(=O)O (H-FLR[Nle]RPK-OH) |  | 11.4 | 0.091 | 7.04 |  |  | 
4 | CCCC[C@H](NC(=O)[C@H](CCCNC(=N)N)NC(=O)[C@H](CCCC)NC(=O)[C@@H](N)Cc1ccccc1)C(=O)N[C@@H](CCCNC(=N)N)C(=O)N1CCC[C@H]1C(=O)N[C@@H](CCCNC(=N)N)C(=O)O (H-F[Nle]R[Nle]RPR-OH) |  |  | 0.087 | 7.06 |  |  | 
5 | CC[C@H](C)[C@H](NC(=O)[C@H](CCCNC(=N)N)NC(=O)[C@@H](N)CC(C)C)C(=O)N[C@@H](CCCNC(=N)N)C(=O)O (H-LRIR-OH) |  | 7 |  |  | 5.66 | 5.03 | 
6 | CCCC[C@H](NC(=O)[C@H](CCCCN)NC(=O)[C@@H]1CCCN1C(=O)[C@H](CCCCN)NC(=O)[C@H](CCCC)NC(=O)[C@H](CCCCN)NC(=O)[C@@H](N)CCCC)C(=O)N[C@@H](CCCCN)C(=O)O (H-[Nle]K[Nle]KPK[Nle]K-OH) |  |  | 0.091 | 7.04 |  |  | 
7 | H-FLARIRPK-OH |  | 11 | 0.26 | 6.58 |  |  | 
8 | H-FLRAIRP-OH |  | 10.3 | 0.74 | 6.13 |  |  | 
9 | H-FLRIR-OH |  | 9.6 |  |  | 6.12 | 5.67 | 
10 | H-FLRIRPKLK-OH |  | 9.7 |  |  | 7.2 | 6.95 | 
11 | H-FLRIRRPK-OH |  |  | 0.074 | 7.13 |  |  | 
12 | H-GFLRIR-OH |  | 8.2 |  |  | 6.56 | 6.21 | 
13 | H-GFLRIRPK-OH |  | 9.5 |  |  |  | 6.88 | 
14 | H-GFLRIRPKLK-OH |  | 10.4 |  |  | 7.58 | 7.39 | 
15 | H-GGFLRIRPKLK-OH |  | 10.4 |  |  | 7.39 |  | 
16 | H-LARIRPKLK-OH |  | 9.2 |  | 6.99 |  |  | 
17 | H-LRAIRPKLK-OH |  | 9.2 |  | 6.91 |  |  | 
18 | H-LRIRPK-OH |  | 6.3 |  |  | 6.71 | 6.74 | 
19 | H-LRIRPKLK-OH | 0.068 |  |  |  | 7.52 | 7.17 | 0.03
